Among the data in publication PMC9718554, “Discovery of a fragment hit compound targeting D-Ala:D-Ala ligase of bacterial peptidoglycan biosynthesis” (Journal of Enzyme Inhibition and Medicinal Chemistry, 2022) are remaining activity values, retold here.

The target in the test is T1, E. coli DdlB enzyme (D-alanine:D-alanine ligase) (Escherichia coli, UniProt P07862).
T1 construct: made in house; host or cells: E. coli
The test is described as follows: biochemical. Conditions: read-out: DdlB RA; for remaining activity at 2600 µM: tested concentration 2.6 mM; for remaining activity at 2100 µM: tested concentration 2.1 mM; for remaining activity at 1700 µM: tested concentration 1.7 mM; for remaining activity at 1800 µM: tested concentration 1.8 mM; for remaining activity at 2300 µM: tested concentration 2.3 mM; for remaining activity at 2000 µM: tested concentration 2.0 mM; for remaining activity at 1900 µM: tested concentration 1.9 mM; for remaining activity at 2200 µM: tested concentration 2.2 mM; for remaining activity at 3200 µM: tested concentration 3.2 mM; for remaining activity at 2700 µM: tested concentration 2.7 mM; for remaining activity at 3300 µM: tested concentration 3.3 mM.

Where [1] appears, read: residual activity of DdlB, fragment library screening, tested concentration 2.5 mM.
The mark [2] stands for this setting: residual activity of DdlB, fragment library screening.

Like-named read-outs stand apart in the source and are kept apart here.

On to `O=C1CC(C(=O)O)c2ccccc2N1` (stereo not shown) [Compound K784-1648], for which the remaining activity at 2600 µM is 87%. Regarding `O=C1CCC2(CCN(S(=O)(=O)c3ccccc3)C2)N1` (stereo not shown) [Compound S914-0001], for the setting “residual activity”, the remaining activity at 2100 µM amounted to 101%. As for `Cc1ccc(N)c(N)c1` [FLD075], the remaining activity at 2500 µM under setting [1] is 90%. As for `Cc1ccc(-c2noc(O)n2)cc1` [Compound C066-5428], under “tested concentration 2.8 mM”, the remaining activity at 2800 µM came out at 95%. As for `CCOC(=O)C(C#N)c1ccccc1` (stereo not shown) [FLD181], the remaining activity at 2500 µM under setting [1] stood at 89%.

As for `NS(=O)(=O)c1ccc(CNC(=O)N2CCOCC2)cc1` [Compound Y030-3729], the remaining activity at 1700 µM came to 104%.

In the case of `c1ccc2c(c1)CCNC2` [FLD166], the remaining activity at 2500 µM under setting [1] worked out at 77%. The same measure, in the same setting: in the case of `Nc1cc(Cl)ccc1O` [FLD032] it was 100%; in that of `CCNCc1ccncc1` [FLD193], 91%. Turning to `Cc1cc(Nc2c(O)c(=O)c2=O)no1` [Compound G317-0569], the remaining activity at 2600 µM was found to be 93%. Turning to `O=C(O)c1ccccc1NCCc1ccc(Cl)cc1` [Compound 8524-6914], the remaining activity at 1800 µM (residual activity) was 105%.

Consider `Cc1ccc([N+](=O)[O-])cc1S(=O)(=O)O` [Compound 0804-0047], for which the remaining activity at 2300 µM was 93%. `O=C(NCc1cc[nH]n1)[C@H]1CC=CC[C@H]1C(=O)O` [Compound Y504-7917]: the remaining activity at 2000 µM (fragment library screening) turned out to be 88%.

Turning to `CNCCN1C(=O)C(C)SC1c1ccccc1C` (stereo not shown) [Compound V007-8918], the remaining activity at 1900 µM worked out at 72%. As for `COc1cccc(F)c1B(O)O` [Compound 8020-2294], the remaining activity at 2900 µM stood at 97%. As to `CCCCCC(C)n1nc(O)cc1N` (stereo not shown) [Compound D068-0217], under “tested concentration 2.5 mM”, the remaining activity at 2500 µM came out at 103%.

In the case of `O=C1CSC2N1CCNC21CCCCC1` (stereo not shown) [Compound 8003-7360], the remaining activity at 2200 µM turned out to be 90%. Turning to `Nc1ncccc1C(=O)O` [FLD088], the remaining activity at 2500 µM was found to be 98%. In the case of `Cc1nnc(-c2ccc(C(=O)O)c(N)c2)o1` [Compound 8020-0732], where the note is “residual activity”, the remaining activity at 2300 µM is 114%. For the compound `CC1Cc2ccc(CN)cc2N1C(=O)c1ccccc1` (stereo not shown) [FF01-3167], the remaining activity at 2300 µM (residual activity) came out at 51%. In the case of `NCCNC(=O)c1nonc1N` [Compound 8006-0101], the remaining activity at 3200 µM under setting [2] worked out at 93%. Regarding `O=C(O)c1cc(O)ccc1Cl` [FLD097], the remaining activity at 2500 µM under setting [1] amounted to 94%. Consider `CCc1nc2ccc(C(N)=O)cc2nc1CC` [Compound Z601-0869], for which the remaining activity at 2400 µM (tested concentration 2.4 mM) was found to be 88%. On to `Cc1ccc2c(c1)CCCN2C(=O)CCC(=O)O` [Compound Y206-3286], for which the remaining activity at 2000 µM (fragment library screening) turned out to be 90%. For `CCS(=O)(=O)N1CCCC1c1ccccc1F` (stereo not shown) [Compound D399-0515], the remaining activity at 2300 µM amounted to 95%. Consider `Cc1ccc(S(=O)(=O)N2CCc3[nH]cnc3C2)cc1` [Compound M512-0400], for which the remaining activity at 2000 µM (residual activity) came out at 94%. Consider `CCS(=O)(=O)N1CCC(C(=O)N2CCCCC2)CC1` [Compound Y050-2528], for which, for the setting “residual activity”, the remaining activity at 2100 µM was 97%. Still for that read-out and setting: in the case of `O=C1C(O)C2(CCCCC2)N1C1CCNCC1` (stereo not shown) [Compound T965-0058] it was 90%.

Take `NCCCN1CCCC1=O` [FF01-3614]: where the note is “residual activity of DdlB, fragment library screening, tested concentration 4.2 mM”, the remaining activity at 4200 µM came to 90%. With `Nc1ccc2ncc(C(=O)O)c(O)c2c1` [Compound 8020-1815], the remaining activity at 2500 µM (tested concentration 2.5 mM) is 42%. Take `CCC(C)(C)NC(=O)C1CC(=O)N(c2ccccc2)C1` (stereo not shown) [Compound Y031-3748]: for the setting “residual activity”, the remaining activity at 2200 µM is 101%. `O=C(Nc1cccnc1)[C@H]1CCCC[C@H]1C(=O)O` [Compound Y203-7528]: the remaining activity at 2000 µM (fragment library screening) is 91%. Regarding `Cc1cc(N)ccn1` [FLD090], under setting [1], the remaining activity at 2500 µM came out at 100%.

For `O=C(O)c1cccn2c(=O)c3cc(Cl)ccc3nc12` [Compound C200-9602], the remaining activity at 1800 µM (residual activity) turned out to be 78%.

Turning to `Cc1ccccc1C(=O)N1CCCN(C)c2ccccc21` [Compound T599-3543], the remaining activity at 1800 µM (residual activity) came out at 72%. With `Nc1ncnc2[nH]c(N3CCOCC3)nc12` [Compound 8001-0336], the remaining activity at 2300 µM (residual activity) amounted to 98%. As to `N#Cc1ccc(CN)cc1` [FLD152], the remaining activity at 2500 µM stood at 97%. In the case of `CCS(=O)(=O)N1CCCc2cc(NC(C)=O)ccc21` [Compound G504-0524], where the note is “residual activity”, the remaining activity at 1800 µM stood at 95%. Take `Cc1ccc2cc(CCC(=O)O)c(O)nc2c1` [Compound P207-8939]: the remaining activity at 2600 µM amounted to 93%.

As for `NS(=O)(=O)c1ccc2c(c1)OCCO2` [Compound 1313-0805], the remaining activity at 2300 µM came to 88%. Take `N#CCc1nnn[nH]1` [Compound 8018-8768]: the remaining activity at 5500 µM (residual activity of DdlB, fragment library screening, tested concentration 5.5 mM) is 97%. In the case of `O=S(=O)(Cc1ccccc1F)N1CCOCC1` [Compound Y300-2685], the remaining activity at 2100 µM was found to be 95%. On to `O=C(O)CCCc1nc2ccccc2c(=O)n1C1CC1` [Compound Y042-5065], for which the remaining activity at 1800 µM (fragment library screening) was found to be 92%. As for `Nc1cccc(O)c1` [FLD085], the remaining activity at 2500 µM under setting [1] came to 100%. Turning to `CC1CN(S(=O)(=O)c2ccc(F)c(F)c2)CC(C)O1` (stereo not shown) [Compound Y202-8173], the remaining activity at 2100 µM (residual activity) is 95%. In the case of `O=C(O)c1ccc2cc(O)ccc2c1` [FLD068], the remaining activity at 2500 µM under setting [1] worked out at 94%.

As to `CN1CCCCC(CC(=O)O)C1=O` (stereo not shown) [Compound S581-1125], the remaining activity at 2700 µM turned out to be 95%. As for `CN(C)c1ccc(C(=O)O)cc1` [FLD070], the remaining activity at 2500 µM under setting [1] worked out at 93%. In the case of `Cc1ccc(C(=N)N)cc1` [FLD025], the remaining activity at 2500 µM under setting [1] amounted to 100%.

For `OB(O)c1ccc(F)c(F)c1` [Compound 1222-0123], the remaining activity at 3200 µM came out at 88%. As to `OB(O)c1ccn[nH]1` [Compound 8018-7072], the remaining activity at 4500 µM (tested concentration 4.5 mM) was found to be 87%. For the compound `Cc1nn(Cc2c(C(=O)O)noc2C)c(C)c1C` [FF01-5078], the remaining activity at 2000 µM is 81%. Take `Oc1cc(-c2ccco2)n[nH]1` [Compound Y503-3143]: the remaining activity at 3300 µM turned out to be 98%. Turning to `O=C(O)c1cnc(-c2cccnc2)[nH]c1=O` [Compound 8020-5063], the remaining activity at 2300 µM (residual activity) amounted to 94%.

Consider `CC(=O)Nc1ccc2c(C)cc(C)nc2n1` [Compound 8006-1575], for which the remaining activity at 2300 µM was found to be 97%. Consider `O=C(O)c1ccccc1-c1ncc[nH]1` [Compound 8019-7907], for which the remaining activity at 2700 µM was 102%. For the compound `O=C(O)c1n[nH]cc1Br` [Compound 8017-3539], the remaining activity at 2600 µM came out at 87%. Regarding `N#Cc1ccc(NC(=O)[C@H]2CC=CC[C@H]2C(=O)O)cc1` [Compound 8009-1194], the remaining activity at 2000 µM (residual activity) is 91%. Take `Cc1ccc(S(N)(=O)=O)cc1NC(=O)c1cccnc1` [Compound Y202-7310]: the remaining activity at 1700 µM amounted to 100%. With `Cc1cc2nc(O)c(CCO)c(C)n2n1` [Compound 8011-1975], where the note is “tested concentration 2.9 mM”, the remaining activity at 2900 µM was 95%.

For the compound `O=C1N[C@@H](c2ccccc2)CO1` [FLD127], under setting [1], the remaining activity at 2500 µM turned out to be 99%. In the case of `CCCc1cc(C(=O)O)n(C)n1` [Compound 8010-6224], the remaining activity at 3300 µM under setting [2] came to 90%. As for `O=C(O)c1n[nH]c2ccccc12` [FLD005], under setting [1], the remaining activity at 2500 µM is 97%. Same read-out and setting: in the case of `NC(=O)c1cnccn1` [FLD007] it was 100%. Consider `O=C(O)c1ccccc1C(=O)NCc1ccccc1` [Compound K786-0839], for which, where the note is “fragment library screening”, the remaining activity at 2000 µM came to 98%. With `O=S(=O)(O)c1nnc(-c2ccccc2)o1` [Compound 8018-8658], the remaining activity at 2200 µM was determined as 98%. As to `NC(=O)NC(=O)Cc1ccccc1` [FLD017], the remaining activity at 2500 µM under setting [1] was 100%. For the compound `COc1ccccc1Nc1ncccc1C(=O)O` [Compound 8019-5848], under “residual activity”, the remaining activity at 2000 µM is 99%. Consider `Cc1cccc(C2SC(C)C(=O)N2CC(=O)N(C)C)c1` (stereo not shown) [Compound V017-7801], for which the remaining activity at 1700 µM is 98%. Consider `O=C1CC[C@H](C(=O)O)O1` [FLD057], for which the remaining activity at 2500 µM came out at 100%. `CC1(O)CCC12CCN(C(=O)CC1CC1)CC2` (stereo not shown) [Compound S971-1224]: the remaining activity at 2500 µM (tested concentration 2.5 mM) was 75%. Consider `N#Cc1cccnc1N` [FLD196], for which the remaining activity at 2500 µM under setting [1] came to 99%. As for `CCn1c(C(=O)NC(C)C)cc2occc21` [Compound Z601-0941], the remaining activity at 2300 µM is 96%. Regarding `O=C(O)c1cnc(-c2ccc(F)cc2)[nH]c1=O` [Compound 8020-2279], the remaining activity at 2100 µM (residual activity) is 94%. For `Cc1ccc(S(N)(=O)=O)cc1C(=O)NCC(C)C` [Compound Y050-1744], the remaining activity at 1800 µM came to 83%. With `CNC(=O)C1CCCN(S(=O)(=O)c2cccs2)C1` (stereo not shown) [Compound D356-2306], the remaining activity at 1900 µM (residual activity) was found to be 86%. On to `COc1cc(N)ccn1` [FLD120], for which, under setting [1], the remaining activity at 2500 µM is 97%. Take `O=C(O)C1CSC(c2c(F)cc(F)cc2F)N1` (stereo not shown) [Compound 8011-4426]: the remaining activity at 1900 µM came to 90%.

With `NCCc1ccc(Br)cc1` [FLD170], under setting [1], the remaining activity at 2500 µM was 93%.
